# Test results: patent US6656948B2, “Cytotoxic compounds: derivatives of the pyrido[2,3,4-kl]acridine ring system” (Universidad Complutense de Madrid, priority 1998, dated 2003)
# Assays:
# Assay type in all cases: cell-based
# [1] = test system: several mammalian cancer cell lines; test: In vitro antitumor activity by culturing tumor cells (overall statement); settings: mouse lymphoma, human NSC lung carcinoma, human melanoma, human colon carcinoma
# Source text: (§1) Its antitumor activity has been detected in vitro by culturing the tumor cells following the methodology described by Bergeron et al. ^16, and by Schroeder et al ^16. Activity against different tumors as mouse lymphoma, human NSC lung carcinoma, human melanoma and human colon carcinoma has been observed.
# [2] = test system: HT-29 (ATCC HTB-38, monolayer culture of a human colon carcinoma); test: Cytotoxicity against HT-29 cells, crystal violet staining, approximate IC50; settings: HT-29, 72 h, three days of incubation
# Procedure: as §1
# (§2) Biological activity: Cells were maintained in logarithmic phase of growth in Eagle's Minimum Essential Medium, with Earle's Balanced Salts, with 2.0 mM L-glutamine, with non-essential amino acids, without sodium bicarbonate (EMEM/neaa); suplemented with 10% Fetal Calf Serum (FCS), 10^−2 M sodium bicarbonate and 0,1 g/l penicillin-G+ streptomycin sulfate.
# (§3) The tumor cell lines employed have been P-388 (ATCC CCL-46, suspension culture of a lymphoid neoplasm from DBA/2 mouse), A-549 (ATCC CCL-185, monolayer culture of a human lung carcinoma), HT-29 (ATCC HTB-38, monolayer culture of a human colon carcinoma) and MEL-28 (ATCC […], monolayer culture of a human melanoma).
# (§4) A-549, HT-29 and MEL-28 were seeded into 16 mm wells at 2×10^4 cells per well in 1 ml aliquots of MEM 10FCS containing the indicated concentration of drug. A separate set of cultures without drug was seeded as control growth to ensure that cells remained in exponential phase of growth. All determinations were carried out in duplicate. After three days of incubation at 37° C., 10% CO2 in a 98% humide atmosphere, the wells were stained with 0.1% Crystal Violet. An aproximate IC50 was determined by comparing the growth in wells with drug to the growth in wells control.
# (§5) In Table I are presented the cytotoxicity expressed as IC50 in μg/ml and μM
# [3] = test system: P-388 (ATCC CCL-46, suspension culture of a lymphoid neoplasm from DBA/2 mouse); test: Cytotoxicity against P-388 cells, approximate IC50 from growth versus control wells; settings: P388, 72 h, three days of incubation
# Procedure: as §1, §2, §3
# as §4, with “P-388 cells” for “A-549, HT-29 and MEL-28”, “1×10^4” for “2×10^4”, “5FCS” for “10FCS”, “an” for “the wells were stained with 0.1% Crystal Violet. An”
# as §5
# [4] = test system: A-549 (ATCC CCL-185, monolayer culture of a human lung carcinoma); test: Cytotoxicity against A-549 cells, crystal violet staining, approximate IC50; settings: A549, 72 h, three days of incubation
# Procedure: as §1, §2, §3, §4, §5
# [5] = test system: MEL-28 (ATCC HTB-38, monolayer culture of a human melanoma); test: Cytotoxicity against MEL-28 cells, crystal violet staining, approximate IC50; settings: SK-MEL-28, 72 h, three days of incubation
# Procedure: as §1, §2, §3, §4, §5
smiles,measurement,setting,value
"Cc1cc(=O)[nH]c2c1-c1nc3ccccc3c3ccnc(c13)C2=O [IB-96213, 12-Methyl-9H-benzo[b]pyrido[4,3,2-d,e](1,7)phenantroline-8,10-dione]",antitumor activity against several mammalian cancer cell lines,[1],good antitumor activity
same,IC50,[2]; duplicate,1 µg/mL
same,IC50,[2]; value in brackets,3180 nM
same,IC50,[3]; duplicate,0.1 µg/mL
same,IC50,[3]; value in brackets,320 nM
same,IC50,[4]; duplicate,0.001 µg/mL
same,IC50,[4]; value in brackets,3 nM
same,IC50,[5]; duplicate,0.001 µg/mL
same,IC50,[5]; value in brackets,3 nM
"O=C1c2c(O)ccnc2-c2nc3ccccc3c3ccnc1c23 [IB-98205, 9-hydroxybenzo[b]pyrido[4,3,2-d,e](1,10)phenantrolin-8-one]",antitumor activity against several mammalian cancer cell lines,[1],good antitumor activity
same,IC50,[2]; duplicate,0.12 µg/mL
same,IC50,[2]; value in brackets,400 nM
same,IC50,[3]; duplicate,1.25 µg/mL
same,IC50,[3]; value in brackets,4180 nM
same,IC50,[4]; duplicate,0.012 µg/mL
same,IC50,[4]; value in brackets,40 nM
same,IC50,[5]; duplicate,0.05 µg/mL
same,IC50,[5]; value in brackets,170 nM
